Our source for the Ki values is patent US8344008B2 (Janssen Pharmaceutica NV, priority 2007, dated 2013).

Where a name gives a salt, the structure may show the parent alone.

The target of this assay is T1, recombinant human LTA4 hydrolase (rhLTA4H) (Homo sapiens, UniProt P09960).
T1 construct: made in house; host or cells: Spodoptera frugiperda (Sf-9) cells, baculovirus (pFastBac1)
T1 sequence (P09960 1-611): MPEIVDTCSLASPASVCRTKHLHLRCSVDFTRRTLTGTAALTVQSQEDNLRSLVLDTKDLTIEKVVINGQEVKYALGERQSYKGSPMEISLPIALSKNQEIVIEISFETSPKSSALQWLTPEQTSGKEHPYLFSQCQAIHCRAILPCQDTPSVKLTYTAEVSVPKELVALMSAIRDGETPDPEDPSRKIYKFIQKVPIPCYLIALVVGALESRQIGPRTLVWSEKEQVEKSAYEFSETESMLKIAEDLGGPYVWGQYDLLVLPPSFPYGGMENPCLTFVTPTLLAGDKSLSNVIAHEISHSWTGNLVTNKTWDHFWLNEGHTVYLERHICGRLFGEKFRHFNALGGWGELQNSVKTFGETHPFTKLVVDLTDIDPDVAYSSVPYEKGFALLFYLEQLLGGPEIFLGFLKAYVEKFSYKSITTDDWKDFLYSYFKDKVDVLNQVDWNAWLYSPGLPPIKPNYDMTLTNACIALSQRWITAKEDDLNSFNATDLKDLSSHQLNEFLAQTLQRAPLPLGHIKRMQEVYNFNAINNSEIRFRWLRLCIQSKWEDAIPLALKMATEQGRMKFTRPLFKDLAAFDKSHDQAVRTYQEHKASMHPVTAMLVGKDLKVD
As to the kind of experiment: Recombinant Human LTA4 Hydrolase Assay for LTA4 Hydrolase Inhibitor Activity. The following applies: average of results obtained; LTB4 quantified by enzyme-linked immunoassay. Format: biochemical. How it is done:
Biological Methods: Recombinant Human LTA4 Hydrolase Assay for LTA4 Hydrolase Inhibitor Activity
Compounds of the present invention were tested for LTA4 hydrolase inhibitor activity against recombinant human LTA4 hydrolase (rhLTA4H). Vectors were prepared and used to express rhLTA4H essentially as follows: LTA4 hydrolase encoding DNA was amplified by polymerase chain reaction (PCR) using a human placental cDNA library as a template. Oligonucleotide primers for the PCR reaction were based on the 5′-end, and the complement of the 3′-end, of the published nucleotide sequence for the coding region of the human LTA4 hydrolase gene (C. D. Funk et al., Proc. Natl. Acad. Sci. USA 1987, 84:6677-6681). The amplified 1.9 kb DNA fragment encoding LTA4 hydrolase was isolated and cloned into the pFastBac1 vector (Invitrogen). Recombinant baculovirus was generated as described by the manufacturer, and used to infect Spodoptera frugiperda (Sf-9) cells. Recombinant LTA4 hydrolase enzyme was purified from the infected Sf-9 cells essentially as described by J. K. Gierse et al. (Protein Expression and Purification 1993, 4:358-366). The purified enzyme solution was adjusted to contain 0.29 mg/mL LTA4 hydrolase, 50 mM Tris (pH 8.0), 150 mM NaCl, 5 mM dithiothreitol, 50% glycerol, and EDTA-free Complete protease inhibitor cocktail (Roche). The specific activity of the enzyme was about 3.8 μmol/min/mg.
LTA4 substrate was prepared from the methyl ester of LTA4 (Cayman Chemical) by treatment with 67 equiv of NaOH under nitrogen at rt for 40 min. The LTA4 substrate in its free acid form was kept frozen at −80° C. until needed. Each compound was diluted to different concentrations in assay buffer (0.1 M potassium phosphate (pH 7.4), 5 mg/mL fatty acid free BSA) containing 10% DMSO. A 25-uL aliquot of each compound dilution was incubated for 10 min at rt with an equal volume of assay buffer containing 36 ng of recombinant human LTA4H. The solution was then adjusted to 200 μL with assay buffer. LTA4 (free acid) was thawed and diluted in assay buffer to a concentration of 357 ng/mL, and 25 μL (9 ng) of LTA4 substrate was added to the reaction mixture (total volume=225 μL) at time zero. Each reaction was carried out at rt for 10 min. The reaction was stopped by diluting 10 μL of the reaction mixture with 200 μL of assay buffer. LTB4 was quantified in the diluted sample by a commercially available enzyme-linked immunoassay (Cayman Chemical Co.), as recommended by the manufacturer. Positive controls, under essentially identical conditions but without addition of an inhibitor compound, and negative controls, containing all assay components except enzyme, were routinely run in each experiment. […]
Results for the compounds tested in this assay are presented in Table 1 as an average of results obtained.
Turning to `CC(=O)N1C2CCC1CN(Cc1ccc(Oc3nc4ccccc4s3)cc1)C2` [Example 51, meso-1-{3-[4-(Benzothiazol-2-yloxy)-benzyl]-3,8-diaza-bicyclo[3.2.1]oct-8-yl}-ethanone], the inhibition constant Ki is 92 nM.

For the compound `Cc1ccc2nc(Oc3ccc(CCN4CC5CN(C(N)=O)CC5C4)cc3)sc2c1` (stereo not shown) [Example 146], the Ki was 78 nM.

`NC(=O)N1C[C@@H]2C[C@H]1CN2CCOc1ccc(Oc2nc3ccccc3s2)cc1` [Example 40, (S,S)-5-{2-[4-(Benzothiazol-2-yloxy)-phenoxy]-ethyl}-2,5-diaza-bicyclo[2.2.1]heptane-2-carboxylic acid amide]: the Ki is 38 nM.

For the compound `CS(=O)(=O)N1C[C@@H]2C[C@H]1CN2CCOc1ccc(Oc2nc3ccccc3s2)cc1` [Example 49, (S,S)-2-{4-[2-(5-Methanesulfonyl-2,5-diaza-bicyclo[2.2.1]hept-2-yl)-ethoxy]-phenoxy}-benzothiazole], the Ki amounted to 20 nM.

Turning to `Cc1ccc2nc(Oc3ccc(CCN4[C@@H]5CC[C@H]4C[C@@H](NC(N)=O)C5)cc3)sc2c1` [Example 261, meso-endo-(8-{2-[4-(6-Methyl-benzothiazol-2-yloxy)-phenyl]-ethyl}-8-aza-bicyclo[3.2.1]oct-3-yl)-urea], the Ki came to 100 nM.

For `COCC(=O)N1C[C@@H]2C[C@H]1CN2CCOc1ccc(Oc2nc3ccccc3s2)cc1` [Example 22, (S,S)-1-(5-{2-[4-(Benzothiazol-2-yloxy)-phenoxy]-ethyl}-2,5-diaza-bicyclo[2.2.1]hept-2-yl)-2-methoxy-ethanone], the Ki amounted to 10 nM.

In the case of `CC(=O)N[C@H]1C[C@H]2CC[C@@H](C1)N2CCc1ccc(Oc2nc3cccc(Cl)c3s2)cc1` [Example 187, meso-endo-N-(8-{2-[4-(7-Chloro-benzothiazol-2-yloxy)-phenyl]-ethyl}-8-aza-bicyclo[3.2.1]oct-3-yl)-acetamide], the Ki was 975 nM.

With `NC(=O)N[C@H]1C[C@H]2CC[C@@H](C1)N2Cc1ccc(Cc2nc3ccccc3o2)cc1` [Example 37, meso-endo-[8-(4-Benzooxazol-2-ylmethyl-benzyl)-8-aza-bicyclo[3.2.1]oct-3-yl]-urea], the Ki was 44 nM.

Turning to `CS(=O)(=O)N1CCC2CN(Cc3ccc(Oc4nc5ccccc5s4)cc3)CC2C1` (stereo not shown) [Example 130, 2-[4-(5-Methanesulfonyl-octahydro-pyrrolo[3,4-c]pyridin-2-ylmethyl)-phenoxy]-benzothiazole], the Ki stood at 21 nM.

In the case of `CC(=O)N1C[C@@H]2C[C@H]1CN2Cc1ccc(Oc2nc3ccc(C)cc3s2)cc1` [Example 270, (S,S)-1-{5-[4-(6-Methyl-benzothiazol-2-yloxy)-benzyl]-2,5-diaza-bicyclo[2.2.1]hept-2-yl}-ethanone], the Ki came to 72 nM.

Turning to `NCC(=O)N1CC2CN(Cc3ccc(Oc4nc5ccccc5s4)cc3)CC2C1` (stereo not shown) [Example 97, 2-Amino-1-{5-[4-(benzothiazol-2-yloxy)-benzyl]-hexahydro-pyrrolo[3,4-c]pyrrol-2-yl}-ethanone], the Ki is 33 nM.

As to `CS(=O)(=O)N1[C@@H]2CC[C@H]1C[C@@H](NCCOc1ccc(Oc3nc4cccc(Cl)c4s3)cc1)C2` [Example 248, meso-endo-{2-[4-(7-Chloro-benzothiazol-2-yloxy)-phenoxy]-ethyl}-(8-methanesulfonyl-8-aza-bicyclo[3.2.1]oct-3-yl)-amine], the Ki is 3130 nM.

With `O=C(O)c1ccc(CN2CC3CN(Cc4ccc(Oc5nc6ccccc6s5)cc4)CC3C2)cc1` (stereo not shown) [Example 154, 4-{5-[4-(Benzothiazol-2-yloxy)-benzyl]-hexahydro-pyrrolo[3,4-c]pyrrol-2-ylmethyl)-benzoic acid], the Ki came out at 32 nM.

Regarding `O=C(C1CCOC1)N1CC2CN(Cc3ccc(Oc4nc5ccccc5s4)cc3)CC2C1` (stereo not shown) [Example 102, {5-[4-(Benzothiazol-2-yloxy)-benzyl]-hexahydro-pyrrolo[3,4-c]pyrrol-2-yl}-(tetrahydro-furan-3-yl)-methanone], the Ki worked out at 46 nM.

Turning to `c1ccc2sc(Oc3ccc(CN4C[C@@H]5C[C@H]4CN5)cc3)nc2c1` [Example 1B, (S,S)-2-[4-(2,5-Diaza-bicyclo[2.2.1]hept-2-ylmethyl)-phenoxy]-benzothiazole hydrochloride], the Ki was 54 nM.

For `c1ccc2sc(Oc3ccc(OCCN4C[C@@H]5C[C@H]4CN5)cc3)nc2c1` [Example 9B, (S,S)-2-{4-[2-(2,5-Diaza-bicyclo[2.2.1]hept-2-yl)-ethoxy]-phenoxy}-benzothiazole trifluoroacetate], the Ki came to 43 nM.

Take `O=C(CNC(=O)C(F)(F)F)N1CCC2CN(Cc3ccc(Oc4nc5ccccc5s4)cc3)CC21` (stereo not shown) [Example 98, N-(2-{5-[4-(Benzothiazol-2-yloxy)-benzyl]-hexahydro-pyrrolo[3,4-b]pyrrol-1-yl}-2-oxo-ethyl)-2,2,2-trifluoro-acetamide]: the Ki was determined as 40 nM.

As for `NC(=O)N1[C@@H]2CC[C@H]1C[C@H](NCCOc1ccc(Oc3nc4ccc(F)cc4s3)cc1)C2` [Example 267, meso-exo-3-{2-[4.(6-Fluoro-benzothiazol-2-yloxy)-phenoxy]-ethylamino}-8-aza-bicyclo[3.2.1]octane-8-carboxylic acid amide], the Ki was 296 nM.

With `CC(=O)N1C[C@@H]2C[C@H]1CN2CCc1ccc(Oc2nc3ccccc3s2)cc1` [Example 7, (S,S)-1-(5-{2-[4-(Benzothiazol-2-yloxy)-phenyl]-ethyl}-2,5-diaza-bicyclo[2.2.1]hept-2-yl)-ethanone], the Ki is 13 nM.

As for `O=C(CF)N1CC2CN(Cc3ccc(Oc4nc5ccccc5s4)cc3)CC2C1` (stereo not shown) [Example 112, 1-{5-[4-(Benzothiazol-2-yloxy)-benzyl]-hexahydro-pyrrolo[3,4-c]pyrrol-2-yl}-2-fluoro-ethanone], the Ki turned out to be 2 nM.

Take `CS(=O)(=O)N[C@@H]1C[C@H]2CC[C@@H](C1)N2CCOc1ccc(Oc2nc3cc(Cl)ccc3s2)cc1` [Example 265, meso-exo-N-(8-{2-[4-(5-Chloro-benzothiazol-2-yloxy)-phenoxy]-ethyl}-8-aza-bicyclo[3.2.1]oct-3-yl)-methanesulfonamide]: the Ki amounted to 310 nM.

On to `NC(=O)N1C[C@H]2C[C@@H]1CN2Cc1ccc(Oc2nc3ccccc3s2)cc1` [Example 34, (R,R)-5-[4-(Benzothiazol-2-yloxy)-benzyl]-2,5-diaza-bicyclo[2.2.1]heptane-2-carboxylic acid amide], for which the Ki was found to be 7 nM.

With `CS(=O)(=O)N[C@H]1C[C@H]2CC[C@@H](C1)N2CCOc1ccc(Oc2nc3ccc(Cl)cc3s2)cc1` [Example 222, meso-endo-N-(8-{2-[4-(6-Chloro-benzothiazol-2-yloxy)-phenoxy]-ethyl}-8-aza-bicyclo[3.2.1]oct-3-yl)-methanesulfonamide], the Ki was 130 nM.

Regarding `Cc1ccc2nc(Oc3ccc(CCN[C@@H]4C[C@H]5CC[C@@H](C4)N5S(C)(=O)=O)cc3)sc2c1` [Example 269, meso-exo-(8-Methanesulfonyl-8-aza-bicyclo[3.2.1]oct-3-yl)-{2-[4-(6-methyl-benxothiazol-2-yloxy)-phenyl]-ethyl}-amine], the Ki came out at 630 nM.

With `c1ccc2sc(Oc3ccc(CN4CC5CCNC5C4)cc3)nc2c1` (stereo not shown) [Example 81, 2-[4-(Hexahydro-pyrrolo[3,4-b]pyrrol-5-ylmethyl)-phenoxy]-benzothiazole hydrochloride], the Ki was determined as 162 nM.

One may read the Ki as a dissociation constant, usually derived from enzyme kinetics or from competition with a known ligand.
